The source of these data is PubChem BioAssay AID2415 (Johns Hopkins Ion Channel Center, 2010).

What all share (experiment): potentiation across KCNQ channel subtypes – cell-based, manual patch clamp, mode of action, selectivity assay for KCNQ2 potentiator project, late-stage follow-up (AID 2415)
For test [1], the target named is Potassium voltage-gated channel subfamily KQT member 5 (Homo sapiens) (UniProt Q9NR82). Conditions: KCNQ channels in transfected CHO cells, manual whole-cell patch clamp current; measured here: KCNQ5 current ratio; at 10 µM; stronger effect = higher value. In general terms: In patch-clamp work, channel activity is measured electrically.
The target in test [2] is Potassium voltage-gated channel subfamily KQT member 1 (Homo sapiens) (UniProt P51787). Conditions: KCNQ channels in transfected CHO cells, manual whole-cell patch clamp current, at 10 µM.
For test [3], the target named is Potassium voltage-gated channel subfamily KQT member 2 (Rattus norvegicus) (UniProt O88943). Conditions: KCNQ channels in transfected CHO cells, manual whole-cell patch clamp current; measured here: KCNQ2 current ratio; at 10 µM; stronger effect = higher value.
Test [4] concerns the target Potassium voltage-gated channel subfamily KQT member 4 (Homo sapiens) (UniProt P56696). Conditions: KCNQ channels in transfected CHO cells, manual whole-cell patch clamp current; measured here: KCNQ4 current ratio; at 10 µM; stronger effect = higher value.
The target of test [5] is Potassium voltage-gated channel subfamily KQT member 3 (Rattus norvegicus) (UniProt O88944). Conditions: KCNQ channels in transfected CHO cells, manual whole-cell patch clamp current; measured here: KCNQ3 current ratio; at 10 µM; stronger effect = higher value.
Potassium voltage-gated channel subfamily KQT member 3 (Rattus norvegicus), sequence (O88944 whole entry, looked up): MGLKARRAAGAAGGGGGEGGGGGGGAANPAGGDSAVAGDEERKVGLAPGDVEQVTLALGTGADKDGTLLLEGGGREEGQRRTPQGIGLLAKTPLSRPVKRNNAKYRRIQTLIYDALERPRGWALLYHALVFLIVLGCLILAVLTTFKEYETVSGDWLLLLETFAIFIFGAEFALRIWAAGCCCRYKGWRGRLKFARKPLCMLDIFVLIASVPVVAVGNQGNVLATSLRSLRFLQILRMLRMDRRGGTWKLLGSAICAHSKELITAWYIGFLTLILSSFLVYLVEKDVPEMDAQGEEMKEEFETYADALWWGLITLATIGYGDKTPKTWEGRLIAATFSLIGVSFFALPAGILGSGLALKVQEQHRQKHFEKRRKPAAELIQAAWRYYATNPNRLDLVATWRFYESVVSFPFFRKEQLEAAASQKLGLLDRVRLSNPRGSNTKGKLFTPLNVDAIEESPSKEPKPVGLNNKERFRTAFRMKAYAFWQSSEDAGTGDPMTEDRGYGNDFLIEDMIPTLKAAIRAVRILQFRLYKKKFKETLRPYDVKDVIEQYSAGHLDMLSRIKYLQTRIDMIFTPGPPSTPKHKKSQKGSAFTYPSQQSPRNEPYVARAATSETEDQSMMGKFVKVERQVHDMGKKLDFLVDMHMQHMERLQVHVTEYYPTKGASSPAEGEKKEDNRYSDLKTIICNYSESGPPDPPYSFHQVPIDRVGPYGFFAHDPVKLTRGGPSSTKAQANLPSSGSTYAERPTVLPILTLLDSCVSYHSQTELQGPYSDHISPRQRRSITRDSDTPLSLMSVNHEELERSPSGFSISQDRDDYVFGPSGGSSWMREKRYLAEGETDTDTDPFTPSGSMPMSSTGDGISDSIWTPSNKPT

Potassium voltage-gated channel subfamily KQT member 1 (Homo sapiens), sequence (P51787 whole entry, looked up): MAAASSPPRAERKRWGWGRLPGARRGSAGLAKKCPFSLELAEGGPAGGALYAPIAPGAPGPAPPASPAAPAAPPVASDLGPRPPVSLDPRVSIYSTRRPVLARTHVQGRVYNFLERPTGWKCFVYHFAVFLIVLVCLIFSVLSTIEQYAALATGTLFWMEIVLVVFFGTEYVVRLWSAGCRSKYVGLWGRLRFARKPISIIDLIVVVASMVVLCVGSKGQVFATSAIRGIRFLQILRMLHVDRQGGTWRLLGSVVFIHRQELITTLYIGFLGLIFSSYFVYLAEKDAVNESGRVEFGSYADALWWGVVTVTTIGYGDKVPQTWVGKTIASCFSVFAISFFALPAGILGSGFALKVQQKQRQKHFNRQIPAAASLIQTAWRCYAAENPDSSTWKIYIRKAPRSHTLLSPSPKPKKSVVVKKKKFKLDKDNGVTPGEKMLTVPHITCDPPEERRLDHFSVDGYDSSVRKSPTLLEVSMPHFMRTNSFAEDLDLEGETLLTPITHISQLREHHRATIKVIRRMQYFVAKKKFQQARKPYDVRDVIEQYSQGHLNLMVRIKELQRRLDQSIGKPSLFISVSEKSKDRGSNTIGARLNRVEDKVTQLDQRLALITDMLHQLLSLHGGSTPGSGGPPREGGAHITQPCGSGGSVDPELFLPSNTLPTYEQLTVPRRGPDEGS
Potassium voltage-gated channel subfamily KQT member 5 (Homo sapiens), sequence (Q9NR82 whole entry, looked up): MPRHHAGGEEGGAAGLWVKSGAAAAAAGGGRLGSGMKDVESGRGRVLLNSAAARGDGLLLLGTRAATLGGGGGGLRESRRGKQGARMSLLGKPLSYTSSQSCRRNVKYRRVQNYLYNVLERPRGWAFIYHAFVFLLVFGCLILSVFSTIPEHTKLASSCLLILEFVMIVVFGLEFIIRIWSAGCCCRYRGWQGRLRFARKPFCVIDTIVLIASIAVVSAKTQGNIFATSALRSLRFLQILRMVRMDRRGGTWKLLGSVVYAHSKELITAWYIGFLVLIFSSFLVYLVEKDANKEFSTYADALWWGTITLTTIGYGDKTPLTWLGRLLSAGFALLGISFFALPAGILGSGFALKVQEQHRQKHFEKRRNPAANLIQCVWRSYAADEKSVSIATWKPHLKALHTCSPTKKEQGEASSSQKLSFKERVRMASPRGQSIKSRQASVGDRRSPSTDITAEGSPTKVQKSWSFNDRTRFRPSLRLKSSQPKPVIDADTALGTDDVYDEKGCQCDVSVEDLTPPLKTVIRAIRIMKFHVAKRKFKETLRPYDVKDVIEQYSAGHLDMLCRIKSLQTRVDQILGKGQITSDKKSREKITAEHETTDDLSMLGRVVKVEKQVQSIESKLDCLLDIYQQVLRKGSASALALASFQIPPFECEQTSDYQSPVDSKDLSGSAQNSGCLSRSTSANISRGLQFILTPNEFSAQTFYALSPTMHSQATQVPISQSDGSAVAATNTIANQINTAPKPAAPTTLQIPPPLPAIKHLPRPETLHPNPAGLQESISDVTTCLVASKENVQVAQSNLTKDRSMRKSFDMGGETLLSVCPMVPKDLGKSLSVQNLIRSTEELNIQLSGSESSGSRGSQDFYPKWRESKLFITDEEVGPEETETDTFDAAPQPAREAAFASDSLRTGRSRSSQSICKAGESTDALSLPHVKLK
Potassium voltage-gated channel subfamily KQT member 4 (Homo sapiens), sequence (P56696 whole entry, looked up): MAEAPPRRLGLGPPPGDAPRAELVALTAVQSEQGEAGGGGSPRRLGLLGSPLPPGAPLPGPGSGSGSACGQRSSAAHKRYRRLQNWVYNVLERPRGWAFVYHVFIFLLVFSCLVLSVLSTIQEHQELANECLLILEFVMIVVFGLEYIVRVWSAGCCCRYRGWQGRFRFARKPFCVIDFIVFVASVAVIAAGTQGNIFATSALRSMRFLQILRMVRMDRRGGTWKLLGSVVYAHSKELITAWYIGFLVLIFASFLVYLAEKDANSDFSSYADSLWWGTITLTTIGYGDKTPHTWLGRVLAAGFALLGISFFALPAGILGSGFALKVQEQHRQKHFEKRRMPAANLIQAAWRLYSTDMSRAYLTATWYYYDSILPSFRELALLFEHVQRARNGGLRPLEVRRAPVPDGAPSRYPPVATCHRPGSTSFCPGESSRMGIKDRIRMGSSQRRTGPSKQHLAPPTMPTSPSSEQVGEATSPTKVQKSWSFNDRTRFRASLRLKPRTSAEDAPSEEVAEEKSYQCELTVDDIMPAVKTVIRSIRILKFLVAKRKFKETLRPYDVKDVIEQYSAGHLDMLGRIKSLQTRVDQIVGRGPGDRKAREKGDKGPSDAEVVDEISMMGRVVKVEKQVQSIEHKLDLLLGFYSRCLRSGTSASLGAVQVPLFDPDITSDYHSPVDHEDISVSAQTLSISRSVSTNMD
Potassium voltage-gated channel subfamily KQT member 2 (Rattus norvegicus), sequence (O88943 whole entry, looked up): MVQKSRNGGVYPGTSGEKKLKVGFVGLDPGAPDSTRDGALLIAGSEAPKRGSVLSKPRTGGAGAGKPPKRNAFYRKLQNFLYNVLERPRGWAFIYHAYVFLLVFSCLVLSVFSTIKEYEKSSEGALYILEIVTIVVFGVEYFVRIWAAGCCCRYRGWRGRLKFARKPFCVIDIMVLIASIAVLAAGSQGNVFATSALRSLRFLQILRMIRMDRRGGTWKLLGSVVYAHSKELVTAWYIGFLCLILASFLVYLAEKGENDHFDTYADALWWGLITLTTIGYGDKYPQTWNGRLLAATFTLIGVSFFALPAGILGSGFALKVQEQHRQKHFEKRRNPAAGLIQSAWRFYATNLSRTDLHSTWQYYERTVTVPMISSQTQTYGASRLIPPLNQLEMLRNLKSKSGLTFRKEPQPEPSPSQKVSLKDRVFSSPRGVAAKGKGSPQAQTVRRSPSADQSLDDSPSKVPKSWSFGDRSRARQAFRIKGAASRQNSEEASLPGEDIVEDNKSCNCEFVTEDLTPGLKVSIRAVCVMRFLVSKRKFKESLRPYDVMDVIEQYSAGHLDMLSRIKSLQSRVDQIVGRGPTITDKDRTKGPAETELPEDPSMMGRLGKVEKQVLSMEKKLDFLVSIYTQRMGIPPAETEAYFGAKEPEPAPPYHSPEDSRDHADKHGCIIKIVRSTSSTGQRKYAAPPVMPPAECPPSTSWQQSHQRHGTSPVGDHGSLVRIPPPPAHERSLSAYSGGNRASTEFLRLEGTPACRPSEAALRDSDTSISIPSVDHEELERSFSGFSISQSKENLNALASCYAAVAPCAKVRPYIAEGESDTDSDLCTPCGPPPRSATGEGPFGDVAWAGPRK

In the case of `O=C(Nc1ccc(Cl)nc1)c1ccc(F)cc1`, the current ratio I/I0 in test [1] was 3.5; in test [2] (stronger effect = higher value) it was 0.9; in test [3] it was 1.9; in test [4], 2.4; in test [5], 1. Also, the deactivation tau in test [2] (measured here: KCNQ2 deactivation time constant, stronger effect = higher value) is 51.8 ms. Besides, the V1/2 in test [2] (measured here: KCNQ2 half activation voltage, stronger effect = lower value) is -16.6 mV.
